Test results taken from US20020137929A1, “1 - (3-heterocyclylphenyl) isothiourea, -isourea, -guanidine and -amidine herbicidal agents” (Intellectual Property Department, BASF Aktiengesellschaft, priority 1998, published 2002).

What was measured:
AMBEL (Ragweed, Common) = experiment: Preemergence herbicidal evaluation; format: in vivo, Ambrosia artemisifolia; conditions: rated 4-5 weeks after treatment
Method in brief: (§1)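 Test compound, dissolved in aqueous acetone, was sprayed over planted soil cups at an equivalent of about 0.0156 to 0.500 kg/ha; seeds had been mixed with potting soil. Greenhouse growth followed, with visual 0-9 scoring of injury at four to five weeks.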

ZEAMX (Corn, Field) = experiment: Postemergence herbicidal evaluation; format: in vivo, Zea mays
Method in brief: (§2)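 Young plants, roughly two weeks from seeding, receive the active ingredient as a sprayed dispersion (acetone/water 50/50, 0.5% TWEEN 20) at 40 psi. Doses span about 0.0156 to 0.500 kg/ha. A visual score from 0 to 9 compares treated with control plants four to five weeks on.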

CYPSE (Flatsedge) = experiment: Preemergence weed control under flooded paddy conditions; format: in vivo, Cyperus serotinus; conditions: rated 3-4 weeks after treatment
Method in brief: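 Seeds or propagules sown in silt loam kept flooded 1.5-3 cm; compounds in 50/50 acetone/water pipetted into flood water at about 0.0313 to 0.500 kg/ha. Greenhouse; visual 0-9 rating versus untreated control 3-4 weeks after treatment.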

ECHCG (Barnyardgrass) = experiment: Preemergence herbicidal evaluation; format: in vivo, Echinochloa crus-galli; conditions: rated 4-5 weeks after treatment
Method in brief: as §1

CYPIR (Rice Flatsedge) = experiment: Postemergence weed control under flooded paddy conditions; format: in vivo, Cyperus iria; conditions: postemergence weeds, 3-4 weeks after treatment
Method in brief: (§3)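 Herbicidal effect is judged by eye on a 0–9 scale versus control, 3–4 weeks after dosing. Dosing is into flood water kept 1.5–3 cm over the soil, at about 0.0313–0.500 kg/ha in aqueous/acetone 50/50 v/v, on 3–5 cm weeds and 1.5–2.5-leaf rice seedlings.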

ABUTH (Velvetleaf) [1] = experiment: Postemergence herbicidal evaluation; format: in vivo, Abutilon theophrasti
Method in brief: as §2

ABUTH (Velvetleaf) [2] = experiment: Preemergence herbicidal evaluation; format: in vivo, Abutilon theophrasti; conditions: rated 4-5 weeks after treatment
Method in brief: as §1

[3] = system: ECHORC (Watergrass (Calif.)); experiment: Preemergence weed control under flooded paddy conditions; format: in vivo, Echinochloa oryzoides; conditions: rated 3-4 weeks after treatment
Method in brief: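 Herbicidal effect is scored visually on a 0-9 scale against an untreated control, three to four weeks after compounds are pipetted into the flood water (1.5 to 3 cm deep) over seeds planted in silt loam at 0.5 cm depth. Rates: about 0.0313 to 0.500 kg/ha.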

[4] = system: IPOHE (Morningglory, Ivyleaf); experiment: Postemergence herbicidal evaluation; format: in vivo, Ipomoea hederacea
Method in brief: as §2

CASOB (Sicklepod) = experiment: Preemergence herbicidal evaluation; format: in vivo, Cassia obtusifolia; conditions: rated 4-5 weeks after treatment
Method in brief: as §1

[5] = system: GLXMAW (Soybean, Williams); experiment: Postemergence herbicidal evaluation; format: in vivo, Glycine max, (L.) Merr. cv Williams
Method in brief: as §2

SETVI (Foxtail, Green) = experiment: Postemergence herbicidal evaluation; format: in vivo, Setaria viridis
Method in brief: as §2

[6] = system: ECHORC (Watergrass (Calif.)); experiment: Postemergence weed control under flooded paddy conditions; format: in vivo, Echinochloa oryzoides; conditions: postemergence weeds, 3-4 weeks after treatment
Method in brief: as §3

[7] = system: IPOHE (Morningglory, Ivyleaf); experiment: Preemergence herbicidal evaluation; format: in vivo, Ipomoea hederacea; conditions: rated 4-5 weeks after treatment
Method in brief: as §1

Q: What does the source list for Cn1c(C(F)(F)F)cc(=O)n(-c2cc(N=C3SCC(=O)N3CC(=O)NS(C)(=O)=O)c(Cl)cc2F)c1=O [Compound 38, 2-{{2-Chloro-5-[3,6-dihydro-3-methyl-2,6-dioxo-4-(trifluoromethyl)-1(2H)-pyrimidinyl]-4-fluoro-phenyl}imino}-N-(methylsulfonyl)-4-oxo-3-thiazolidineacetamide]?
A: Preemergence herbicidal rating AMBEL (AMBEL (Ragweed, Common); rate 0.0313 kg/ha): 0.0; Preemergence herbicidal rating AMBEL (AMBEL (Ragweed, Common); rate 0.0625 kg/ha): 0.0; Preemergence herbicidal rating AMBEL (AMBEL (Ragweed, Common); rate 0.1250 kg/ha): 0.0; Preemergence herbicidal rating AMBEL (AMBEL (Ragweed, Common); rate 0.2500 kg/ha): 5.0; Postemergence herbicidal rating ZEAMX (ZEAMX (Corn, Field); Rate 0.0156 kg/ha): 7.5; Postemergence herbicidal rating ZEAMX (ZEAMX (Corn, Field); Rate 0.0313 kg/ha): 7.5; Postemergence herbicidal rating ZEAMX (ZEAMX (Corn, Field); Rate 0.0625 kg/ha): 7.5; Postemergence herbicidal rating ZEAMX (ZEAMX (Corn, Field); Rate 0.1250 kg/ha): 7.5; Postemergence herbicidal rating ZEAMX (ZEAMX (Corn, Field); Rate 0.2500 kg/ha): 7.5; Herbicidal rating CYPSE (CYPSE (Flatsedge); 0.0313 kg/ha): 0.0; Herbicidal rating CYPSE (CYPSE (Flatsedge); 0.0625 kg/ha): 0.0; Herbicidal rating CYPSE (CYPSE (Flatsedge); 0.1250 kg/ha): 0.0; Herbicidal rating CYPSE (CYPSE (Flatsedge); 0.2500 kg/ha): 3.0; Preemergence herbicidal rating ECHCG (ECHCG (Barnyardgrass); rate 0.0313 kg/ha): 0.0; Preemergence herbicidal rating ECHCG (ECHCG (Barnyardgrass); rate 0.0625 kg/ha): 0.0; Preemergence herbicidal rating ECHCG (ECHCG (Barnyardgrass); rate 0.1250 kg/ha): 0.0; Preemergence herbicidal rating ECHCG (ECHCG (Barnyardgrass); rate 0.2500 kg/ha): 1.0; Herbicidal rating CYPIR (CYPIR (Rice Flatsedge); rate 0.0313 kg/ha): 3.0; Herbicidal rating CYPIR (CYPIR (Rice Flatsedge); rate 0.0625 kg/ha): 3.0; Herbicidal rating CYPIR (CYPIR (Rice Flatsedge); rate 0.1250 kg/ha): 5.0; Herbicidal rating CYPIR (CYPIR (Rice Flatsedge); rate 0.2500 kg/ha): 5.0; Postemergence herbicidal rating ABUTH (ABUTH (Velvetleaf) [1]; Rate 0.0156 kg/ha): 9.0; Postemergence herbicidal rating ABUTH (ABUTH (Velvetleaf) [1]; Rate 0.0313 kg/ha): 9.0; Postemergence herbicidal rating ABUTH (ABUTH (Velvetleaf) [1]; Rate 0.0625 kg/ha): 9.0; Postemergence herbicidal rating ABUTH (ABUTH (Velvetleaf) [1]; Rate 0.1250 kg/ha): 9.0; Postemergence herbicidal rating ABUTH (ABUTH (Velvetleaf) [1]; Rate 0.2500 kg/ha): 9.0; Preemergence herbicidal rating ABUTH (ABUTH (Velvetleaf) [2]; rate 0.0313 kg/ha): 9.0; Preemergence herbicidal rating ABUTH (ABUTH (Velvetleaf) [2]; rate 0.0625 kg/ha): 9.0; Preemergence herbicidal rating ABUTH (ABUTH (Velvetleaf) [2]; rate 0.1250 kg/ha): 9.0; Preemergence herbicidal rating ABUTH (ABUTH (Velvetleaf) [2]; rate 0.2500 kg/ha): 9.0; Herbicidal rating ECHORC ([3]; 0.0313 kg/ha): 0.0; Herbicidal rating ECHORC ([3]; 0.0625 kg/ha): 2.0; Herbicidal rating ECHORC ([3]; 0.1250 kg/ha): 4.0; Herbicidal rating ECHORC ([3]; 0.2500 kg/ha): 7.0; Postemergence herbicidal rating IPOHE ([4]; Rate 0.0156 kg/ha): 9.0; Postemergence herbicidal rating IPOHE ([4]; Rate 0.0313 kg/ha): 9.0; Postemergence herbicidal rating IPOHE ([4]; Rate 0.0625 kg/ha): 9.0; Postemergence herbicidal rating IPOHE ([4]; Rate 0.1250 kg/ha): 9.0; Postemergence herbicidal rating IPOHE ([4]; Rate 0.2500 kg/ha): 9.0; Preemergence herbicidal rating CASOB (CASOB (Sicklepod); rate 0.0313 kg/ha): 0.0; Preemergence herbicidal rating CASOB (CASOB (Sicklepod); rate 0.0625 kg/ha): 0.0; Preemergence herbicidal rating CASOB (CASOB (Sicklepod); rate 0.1250 kg/ha): 0.0; Preemergence herbicidal rating CASOB (CASOB (Sicklepod); rate 0.2500 kg/ha): 3.0; Postemergence herbicidal rating GLXMAW ([5]; Rate 0.0156 kg/ha): 6.5; Postemergence herbicidal rating GLXMAW ([5]; Rate 0.0313 kg/ha): 6.5; Postemergence herbicidal rating GLXMAW ([5]; Rate 0.0625 kg/ha): 8.0; Postemergence herbicidal rating GLXMAW ([5]; Rate 0.1250 kg/ha): 8.5; Postemergence herbicidal rating GLXMAW ([5]; Rate 0.2500 kg/ha): 8.5; Postemergence herbicidal rating SETVI (SETVI (Foxtail, Green); Rate 0.0156 kg/ha): 0.0; Postemergence herbicidal rating SETVI (SETVI (Foxtail, Green); Rate 0.0313 kg/ha): 3.0; Postemergence herbicidal rating SETVI (SETVI (Foxtail, Green); Rate 0.0625 kg/ha): 5.0; Postemergence herbicidal rating SETVI (SETVI (Foxtail, Green); Rate 0.1250 kg/ha): 9.0; Postemergence herbicidal rating SETVI (SETVI (Foxtail, Green); Rate 0.2500 kg/ha): 9.0; Herbicidal rating ECHORC ([6]; rate 0.0313 kg/ha): 0.0; Herbicidal rating ECHORC ([6]; rate 0.0625 kg/ha): 2.0; Herbicidal rating ECHORC ([6]; rate 0.1250 kg/ha): 4.0; Herbicidal rating ECHORC ([6]; rate 0.2500 kg/ha): 7.0; Preemergence herbicidal rating IPOHE ([7]; rate 0.0313 kg/ha): 0.0; Preemergence herbicidal rating IPOHE ([7]; rate 0.0625 kg/ha): 4.0; Preemergence herbicidal rating IPOHE ([7]; rate 0.1250 kg/ha): 5.0; Preemergence herbicidal rating IPOHE ([7]; rate 0.2500 kg/ha): 9.0
